Laboratory results: paper PMC7365685 (ACS chemical biology, 2019)
Changes are numbered by the printed parent chain.

Assays:
[1] = target: T1, dopamine D2 receptor (D2R; D2SR; SNAP-D2SR) (Homo sapiens, UniProt P14416); assay: [3H]spiperone competition binding
[2] = target: T1, dopamine D2 receptor (D2R; D2SR; SNAP-D2SR); assay: inhibition of forskolin-stimulated cAMP; format: cell-based; details: functional affinity (dissociation constant of coupled receptor); partial agonist
[3] = target: T1, dopamine D2 receptor (D2R; D2SR; SNAP-D2SR); assay: inhibition of forskolin-stimulated cAMP; format: cell-based; details: functional affinity; receptor alkylation with phenoxybenzamine
N186^ECL2A D2R = N186^ECL2A D2R (Homo sapiens, UniProt P14416, N186A); assay: biochemical; set-up: species or system FlpIn CHO
Sequence of N186^ECL2A D2R (P14416 whole entry N186A): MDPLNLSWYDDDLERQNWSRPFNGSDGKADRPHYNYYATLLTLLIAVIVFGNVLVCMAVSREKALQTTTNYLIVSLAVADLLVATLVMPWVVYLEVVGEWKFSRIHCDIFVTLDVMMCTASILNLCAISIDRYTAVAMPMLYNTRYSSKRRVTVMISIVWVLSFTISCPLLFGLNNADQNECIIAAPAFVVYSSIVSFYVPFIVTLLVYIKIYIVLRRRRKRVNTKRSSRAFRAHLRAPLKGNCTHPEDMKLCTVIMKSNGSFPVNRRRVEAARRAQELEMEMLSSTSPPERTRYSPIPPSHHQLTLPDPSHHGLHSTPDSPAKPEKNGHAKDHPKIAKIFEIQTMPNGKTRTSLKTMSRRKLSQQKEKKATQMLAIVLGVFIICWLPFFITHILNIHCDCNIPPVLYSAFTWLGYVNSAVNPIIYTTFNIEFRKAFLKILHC

[4] = target: dopamine D2 receptor (D2R; D2SR; SNAP-D2SR) (Homo sapiens, UniProt P14416, F110A); assay: biochemical
Sequence of dopamine D2 receptor (D2R; D2SR; SNAP-D2SR) (Homo sapiens, UniProt P14416, F110A) (P14416 1-414 isoform P14416-2 F110A): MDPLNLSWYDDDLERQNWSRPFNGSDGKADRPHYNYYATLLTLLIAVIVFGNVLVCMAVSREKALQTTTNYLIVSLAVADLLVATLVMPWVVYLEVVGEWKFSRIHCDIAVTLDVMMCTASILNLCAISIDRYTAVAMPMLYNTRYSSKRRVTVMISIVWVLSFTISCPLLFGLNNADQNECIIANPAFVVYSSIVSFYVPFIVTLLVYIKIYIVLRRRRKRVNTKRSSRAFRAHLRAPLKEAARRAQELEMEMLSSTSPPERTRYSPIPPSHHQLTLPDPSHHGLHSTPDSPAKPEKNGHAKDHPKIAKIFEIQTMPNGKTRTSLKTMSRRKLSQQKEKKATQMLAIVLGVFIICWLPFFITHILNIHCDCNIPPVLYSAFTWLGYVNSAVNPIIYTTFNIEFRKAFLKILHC

T119^3.37A D2R = target: T2, T119^3.37A D2R (Homo sapiens, UniProt P14416, T119A); assay: biochemical
T2 sequence (P14416 1-443 T119A): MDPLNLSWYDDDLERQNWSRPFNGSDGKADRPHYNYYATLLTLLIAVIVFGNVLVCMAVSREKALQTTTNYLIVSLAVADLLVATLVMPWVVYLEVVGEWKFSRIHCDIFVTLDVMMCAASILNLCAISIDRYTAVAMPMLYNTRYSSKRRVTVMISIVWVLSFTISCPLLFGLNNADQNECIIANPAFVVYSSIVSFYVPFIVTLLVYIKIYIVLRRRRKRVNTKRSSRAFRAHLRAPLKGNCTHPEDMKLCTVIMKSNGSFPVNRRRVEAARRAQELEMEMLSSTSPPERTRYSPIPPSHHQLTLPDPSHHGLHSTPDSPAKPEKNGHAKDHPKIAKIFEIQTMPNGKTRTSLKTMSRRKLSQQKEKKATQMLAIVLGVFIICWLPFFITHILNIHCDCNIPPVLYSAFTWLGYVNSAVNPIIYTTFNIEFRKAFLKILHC

[5] = target: dopamine D2 receptor (D2R; D2SR; SNAP-D2SR) (Homo sapiens, UniProt P14416, F202A); assay: biochemical
Sequence of dopamine D2 receptor (D2R; D2SR; SNAP-D2SR) (Homo sapiens, UniProt P14416, F202A) (P14416 1-414 isoform P14416-2 F202A): as the sequence (P14416 1-414 isoform P14416-2 F110A) above, with A110F, F202A counted along it

I122^3.40A D2R = target: T3, I122^3.40A D2R (Homo sapiens, UniProt P14416, I122A); assay: biochemical; set-up: species or system FlpIn CHO
T3 sequence (P14416 1-443 I122A): T2 sequence (P14416 1-443 T119A) with A119T, I122A

[6] = target: dopamine D2 receptor (D2R; D2SR; SNAP-D2SR) (Homo sapiens, UniProt P14416, S193A); assay: biochemical
Sequence of dopamine D2 receptor (D2R; D2SR; SNAP-D2SR) (Homo sapiens, UniProt P14416, S193A) (P14416 1-414 isoform P14416-2 S193A): as the sequence (P14416 1-414 isoform P14416-2 F110A) above, with A110F, S193A counted along it

I183^ECL2A D2R = I183^ECL2A D2R (Homo sapiens, UniProt P14416, I183A); assay: biochemical
Sequence of I183^ECL2A D2R (P14416 whole entry I183A): as the sequence (P14416 whole entry N186A) above, with I183A, A186N counted along it

S197^5.46A D2R = S197^5.46A D2R (Homo sapiens, UniProt P14416, S197A); assay: biochemical
Sequence of S197^5.46A D2R (P14416 whole entry S197A): as the sequence (P14416 whole entry N186A) above, with A186N, S197A counted along it

C118^3.36A D2R = target: T4, C118^3.36A D2R (Homo sapiens, UniProt P14416, C118A); assay: biochemical
T4 sequence (P14416 1-443 C118A): T2 sequence (P14416 1-443 T119A) with C118A, A119T

V115^3.33A D2R = target: T5, V115^3.33A D2R (Homo sapiens, UniProt P14416, V115A); assay: biochemical
T5 sequence (P14416 1-443 V115A): T2 sequence (P14416 1-443 T119A) with V115A, A119T

L174^ECL2A D2R = L174^ECL2A D2R (Homo sapiens, UniProt P14416, L174A); assay: biochemical; set-up: species or system FlpIn CHO
Sequence of L174^ECL2A D2R (P14416 whole entry L174A): as the sequence (P14416 whole entry N186A) above, with L174A, A186N counted along it

E181^ECL2A D2R = E181^ECL2A D2R (Homo sapiens, UniProt P14416, E181A); assay: biochemical
Sequence of E181^ECL2A D2R (P14416 whole entry E181A): as the sequence (P14416 whole entry N186A) above, with E181A, A186N counted along it

T1 sequence (P14416 1-414 isoform P14416-2): as the sequence (P14416 1-414 isoform P14416-2 F110A) above, with A110F counted along it

With `Clc1cccc(N2CCNCC2)c1Cl` [compound 1, DCPP] the Ki [1] was 0.575 µM and the “cAMP (BRET Biosensor) / pKA” value [2] was 6.49 ± 0.18.

Work on `CCCN1CCN(c2cccc(Cl)c2Cl)CC1` [compound 2] yielded a Ki [1] of 0.0182 µM.

`CCCCN1CCN(c2cccc(Cl)c2Cl)CC1` [compound 3] showed a Ki [1] of 0.00501 µM.

`COCCCCN1CCN(c2cccc(Cl)c2Cl)CC1` [compound 4] showed a Ki [1] of 0.02 µM.

`CCCCN1CCN(c2ccccc2OC)CC1` [compound 12] was tested, and the Ki [1] was 0.0933 µM.

In the case of `NCCc1ccc(O)c(O)c1` [dopamine], the pKA [3] is reported as “determine the functional affinity and efficacy of dopamine and ropinirole”.

For `CCCN(CCC)CCc1cccc2c1CC(=O)N2` [ropinirole], the Ki (N186^ECL2A D2R) was 9.77 µM, the Ki [4] was 42.7 µM and the pKA [3] was “determine the functional affinity and efficacy of dopamine and ropinirole”. The Ki (T119^3.37A D2R) was 4.27 µM, the Ki [5] was 12.3 µM and the Ki (I122^3.40A D2R) was 7.76 µM. It also gave a Ki [6] of 100 µM, a Ki (I183^ECL2A D2R) of 3.16 µM and a Ki (S197^5.46A D2R) of 8.51 µM. For the same compound, the Ki (C118^3.36A D2R) was 3.72 µM, the Ki [1] was 6.61 µM and the Ki (V115^3.33A D2R) was 18.6 µM. It also gave a Ki (L174^ECL2A D2R) of 2.24 µM and a Ki (E181^ECL2A D2R) of 3.02 µM.
